# Experiments:
# Kinases (~ 40 in no) = assay: Kinase panel (~ 40); type: biochemical; parameters: key: NSE No significant effect; V wk very weak (very low-level agonist activity seen with mPPARγ); settings: at 10 µM
# From the text: (§1) Based on the homology of the ligand binding domains, 3 different isoforms of ROR (hRORα, hRORβ and hRORγ) are reported. Small variations in the LBD regions possibly lead to differences in competitive binding between the nuclear receptors of the ROR isoforms (Fig. 1b). Similar to the assessment of RORγ binding assay, TR-FRET binding assays were also used to assess the affinity of PCCR-1 for other ROR isoforms. […] This was reconfirmed in cellular functional assays for the selected isoforms and nuclear receptors using Gal4 DBD with luciferase reporter system from Indigo (PA, USA). […] In addition, both cellular agonist and antagonist effects as well as for enzyme activity were evaluated with a known reference compound for each target, using a radiolabeled method (Eurofins Cerep, France, Table 1).
# hFXR = assay: Nuclear receptors: functional assay, hFXR antagonism; type: cell-based, human; settings: nuclear receptors: functional assays
# From the text: as §1
# [1] = test system: IL-17A in human whole blood; assay: IL-17A inhibition, human whole blood, TCR stimulation; type: cell-based; settings: TCR stimulatory conditions, n = 10
# Experimental: For whole blood assay the heparinized whole blood was diluted (1:1) with saline and added in 96-well plate pre-coated with human anti-CD3 mAb (10 µg/mL). Compound treatment was done for 30 min followed by co-stimulation with anti-CD28 mAb (2 µg/mL). After 48 h of incubation supernatant was used for IL-17 estimation by ELISA.
# [2] = test system: IL-22 release in human PBMC; assay: IL-22 release, human PBMC under Th17 polarization conditions; type: cell-based; settings: human PBMC under Th17 polarization condition
# Experimental: An increase in the levels of Th17 dependent cytokine in the peripheral blood of COPD patients as compared to the Th1 and Th2 dependent cytokines has been well documented in a subset of COPD patients. A comparative study was performed under TCR activating conditions to evaluate the potencies of PCCR-1 for inhibition across Th1, Th2 and Th17 dependent cytokines using hPBMCs.
# Human whole blood from healthy subjects were procured from Clinical Research Unit, Sanpada. Clinical Research Center Glenmark (Plot No. D, 508, Turbhe, TTC Industrial Area, MIDC, Sanpada, Navi Mumbai, Maharashtra 400705, India). PBMCs were isolated using heparinized blood with Ficoll Histopaque. Briefly, the cells were seeded in 96-well plate pre-coated with human anti-CD3 mAb (10 µg/mL), post 30 min of compound treatment cells were stimulated with human anti-CD28 mAb (2 µg/mL). After 72 h of culture, the supernatant was collected for Th1/Th2 cytokines; IFN-γ, IL-2, IL-4 and IL-10 and measured by ELISA. For Th17 polarization assay, the following cytokine cocktail was used: IL-1β (10 ng/ml), IL-23(10 ng/ml), IL-6 (50 ng/ml), TGF-β1 (3 ng/ml), IL-2 (20U/ml) and supernatants were used for measuring IL-17 and IL-22 by ELISA.
# [3] = test system: IL-17 release from COPD lung BALf cells; assay: IL-17 release, BALf cells from COPD patients; type: cell-based; settings: Homo sapiens; TCR stimulated, n = 10; read-out: IL-17 IC50, COPD patient's sample: BAL
# Experimental: Whole blood and BAL samples from COPD patients were obtained from Multispecialty hospital, Mumbai post approval from ethics committee and informed consent of patients. 30–40 mL Broncho alveolar lavage (BALf) was collected per patient and stored in ice. Blood was collected in heparin vaccutainer as per approved protocol. Both the samples were processed within 2 h of collection. BALF was passed through 100-µm and 40-µm cell strainer to remove debris and mucus, the samples were centrifuged and the cells were re-suspended in RPMI 1640 complete medium. PBMCs from blood were isolated using Histopaque-1077 by density gradient centrifugation. Isolated BAL cells and PBMCs were seeded in 96 well coated with 10 µg/ml anti-CD3 and 2 µg/ml anti-CD2. Cells were further treated with different concentration of test compound for 60 min followed by stimulation with 20 µg/ml anti-CD28 and incubated for 48–72 h. The supernatant was used for estimating IL-17 by ELISA.
# FXR = test system: T1, FXR; assay: TR-FRET selectivity binding assay, FXR
# T1 construct: purchased Invitrogen
# From the text: as §1
# (§2) For selectivity, the ROR isoforms RORα, FXR, LXRα, LXRβ, RXR, RARα were incubated with compound for 60 min at 22 °C followed by detection mix containing respective agonist (All trans retinoic acid for RARα, T0901317 for LXRα, LXRβ, 9-cis Retinoic acid for RXR, GW-4064 for FXR) and coactivator peptide (FD22 for RORα, PGC1α for RXR, RARα, TRAP220 for LXRα, LXRβ, SRC2-2 for FXR) and Tb-anti GST antibody prepared in assay buffer were added into a 384-well white plate. Reading taken after overnight incubation and the data analysis done as per the protocol mentioned in RORγt-LBD and co-activator ligand binding assay.
# GABA Cl = assay: Cerep panel, GABA Cl
# From the text: as §1
# human RORγt = target: T2, human RORγt (Homo sapiens, UniProt P51449); assay: RORγ transactivation assay in transfected HEK293 cells; type: cell-based; settings: HEK293, n = 4; read-out: potency, inhibition of human RORγt in transactivation assay
# T2 construct: Gal4-DBD human RORγt hinge LBD/pcDNA 3.1; expressed in transfected cells; host or cells: HEK293
# Experimental: For RORg transactivation assay the HEK293 cells were seeded in 100 mm dish and transfected with 4.5 µg total DNA (2.25 µg of pGL4.31 Luc2/GAL4-UAS hygro and 2.25 µg Gal4-DBD human RORγt hinge LBD/pcDNA 3.1 and 0.112 µg of pRL-CMV using Effectene transfection reagent (Qiagen). After 16–20 h post transfection, cells were reseeded at the density of 0.05 M cells per well of 96 well plate in DMEM high glucose containing 2% charcoal stripped serum. 4–6 h post seeding, PCCR-1 treatment was given for 24 h, followed by cells lysis with 1X Passive Lysis buffer of Dual luciferase kit (Promega). The signal was detected after addition of stop and glo reagent of the kit in luminescence mode.
# [4] = test system: IL-17 cytokine from rat splenocytes; assay: IL-17 inhibition, rat splenocytes; type: cell-based; settings: Splenocyte, read-out: potency, rat IL-17 inhibition
# LXRα = test system: T3, LXRα; assay: TR-FRET selectivity binding assay, LXRα
# T3 construct: purchased Invitrogen
# From the text: as §1, §2
# T2 sequence (P51449 97-518): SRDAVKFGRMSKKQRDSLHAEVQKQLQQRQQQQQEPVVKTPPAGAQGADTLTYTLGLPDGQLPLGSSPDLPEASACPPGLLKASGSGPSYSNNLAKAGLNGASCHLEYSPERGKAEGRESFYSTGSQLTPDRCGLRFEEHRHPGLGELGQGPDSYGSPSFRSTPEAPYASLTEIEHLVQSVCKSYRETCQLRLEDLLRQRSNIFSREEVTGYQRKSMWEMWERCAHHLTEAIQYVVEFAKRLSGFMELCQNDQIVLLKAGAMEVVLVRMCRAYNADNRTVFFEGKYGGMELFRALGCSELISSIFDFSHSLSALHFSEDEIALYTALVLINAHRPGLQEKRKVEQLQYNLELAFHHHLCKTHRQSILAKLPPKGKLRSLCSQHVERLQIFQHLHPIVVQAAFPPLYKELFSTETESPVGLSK
structure (smiles),measurement,setting,value
CCn1c(C(C)(C)Oc2ccc(F)cc2F)nc2cc(NC(=O)Cc3ccc(S(=O)(=O)CC)cc3)ccc21 [PCCR-1],Kinases (~ 40 in no),Kinases (~ 40 in no),NSE at 10 µM
same,hFXR (antagonism),hFXR,~10 µM
same,IC50,[1],3050 nM
same,ceiling effect for IL-22 release inhibition,[2],60%
same,IC50,"[2]; n = 2, read-out: hIL-22 IC50",43.8 nM
same,IC50,[3],522 nM
same,% Inhibition FXR,FXR; 1 µM,21.45%
same,% Inhibition FXR,FXR; 10 µM,19.81%
same,"Fold over hRORγ, FXR",FXR; vs RORg IC50 31.87 nM,> 313.7 fold
same,IC50,GABA Cl,4800 nM
same,IC50,human RORγt,111 nM
same,IC50,[4],80.6 nM
same,% Inhibition LXRα,LXRα; 1 µM,11.38%
same,% Inhibition LXRα,LXRα; 10 µM,30.37%
same,"Fold over hRORγ, LXRα",LXRα; vs RORg IC50 31.87 nM,> 313.7 fold
